Test results: patent publication US20260035364A1, “BICYCLIC TETRAHYDROTHIAZEPINE DERIVATIVES” (Hoffmann-La Roche Inc., priority 2022, published 2026)

How the values were obtained:
MV-3 cells = assay: T-cell - TCB - MV3 killing assay; format: cell-based; details: Homo sapiens, 120 h, T-cells + MCSP-TCB on MV-3 RFP cells, 5 d; for Emax: 20 μM reference compound A1 = 100%, read-out: MSCP TCB killing MV-3 cells 5 d Emax; for EC50: read-out: MSCP TCB killing MV-3 cells 5 d EC50
Method: All culturing steps are executed at 5% CO2, 37° C. and 95% humidity.
MV-3 RFP cells are cultured in MV-3 medium (DMEM+10% FBS, 1× PenStrep and 0.5 μg/mL Puromycin) for at least 3 weeks. Cultured MV-3 cells at 80% confluency are washed once with PBS−− and trypsinized until detached. […] Cells are seeded with 100 μL/well into a 96-well plate (TTP, #92696), and placed for 40 minutes without moving at room temperature in order to achieve evenly distributed attachment of cells. Plates are then incubated until further use.
On the next day, expanded primary human T-cells are thawed and resuspended in T-cell medium to 4*10^6 cells/mL. For 3 hours, they are cultured in a 6-well plate with 6 mL per well at maximum. After culturing the T-cells, they are filtered through a cell strainer (Miltenyi Biotech, #130-041-407), counted again, and cell concentration is adjusted to 2*10^6 cells/mL.
MCSP-TCB or PBS are pre-diluted in T-cell medium (concentration depending on T-cell donor), 4 times more concentrated than the end-concentration. 60 μL/well of pre-dilutions are then distributed into a round bottom plate (Costar, #3799) according to plate layout. Compounds are added in a 9 pt dose response with the Tecan D300e Digital Dispenser, as well 4 times more concentrated than the end-concentration. DMSO concentration of all wells is adjusted to 0.8%, resulting in 0.2% as final concentration.
60 μL per well of T-cell suspension are added to the prepared round bottom plate and resuspended with a manual multichannel. 100 μL/well of the resuspended T-cell suspension including treatments are then transferred cautiously to the over-night cultured MV-3 cells according to plate layout. 100 μL T-cell medium only is added to the outer MV-3 wells only. Final compound DR is starting at 20 μM with a dilution factor of 3.333. Final TCB concentration is between […] and was determined for each T-cell donor individually by running TCB titrations. For each donor, a TCB concentration was chosen which corresponds to 10-20% of MV3 baseline cell killing in the absence of compound treatment. Positive control is the reference compound A1 which is added in a DR, as well as additional wells with only 20 μM. 20 μM of reference compound A1 represent the positive stimulator control, TCB only (DMSO wells) the neutral control.
After transfer of T-cells with treatment pre-dilutions, MV-3 cells are imaged by time-lapse microscopy using IncucyteZOOM™ (Essen BioScience, MI, USA). Imaging is performed every 3 hours for a total of 120 hours (1OX objective, phase and red image channels, acquisition time 400 ms, Green/Red 4614 optical module). RFP object count per well is analysed in the IncucyteZOOM™ Software (Version 2019B Rev2) with a mask that was previously created and optimized for MV-3 cells. Raw data is exported as object count/well and values are normalized as % TCL compared to wells with MV-3 only, representing 100% growth and therefore 0% TCL.
Calculated % TCL values are analysed in Genedata Screener using Roche Normalization PCT_POS_CTRL with MCSP-TCB only set as Neutral Control and 20 μM of the reference compound A1 set as Stimulator Control/100%.
Induced TCL by compounds without TCB treatment or toxicity (observed in the PBS condition) were be flagged.

DGKalpha = DGKalpha (Homo sapiens, UniProt P23743); assay: In vitro DGK inhibition assay (ADP Glo) run by Reaction Biology Corp., DGKalpha; format: biochemical; set-up: purchased Reaction Biology Corp. (assay service); details: 2 nM kinase, 500 uM DLG, 10-dose duplicate
Method: (§1) DGK α and ζ kinases use ATP to phosphorylate the substrate 1,2-dilauroyl-sn-glycerol (DLG). ATP is converted to ADP as a result of this enzymatic reaction.
(§2) After the kinase reaction, an ATP-depletion reagent is added to terminate the kinase reaction and deplete any remaining ATP, leaving only ADP. Second, a detection reagent is added to simultaneously convert ADP to ATP and allow the newly synthesized ATP to be converted to light using a coupled
(§3) luciferase/luciferin reaction.
(§4) DGK α and ζ kinase ADP Glo assays were ran by Reaction Biology Corp., 1 Great Valley Parkway, Suite 2, Malvern, 19355, PA, USA. Information provided by the service provider are the following: DGK α and ζ kinases were used at 2 nM final concentration. Reactions were carried out at 50 µM ATP. 500 uM of the substrate DLG (Dilauroyl-sn-glycerol) was used.

DGKzeta = DGKzeta (Homo sapiens, UniProt Q13574); assay: In vitro DGK inhibition assay (ADP Glo) run by Reaction Biology Corp., DGKzeta; format: biochemical; set-up: purchased Reaction Biology Corp. (assay service); details: 2 nM kinase, 500 uM DLG, 10-dose duplicate
Method: as §1, §2, §3, §4

DGKalpha, sequence (P23743 whole entry, species assumed): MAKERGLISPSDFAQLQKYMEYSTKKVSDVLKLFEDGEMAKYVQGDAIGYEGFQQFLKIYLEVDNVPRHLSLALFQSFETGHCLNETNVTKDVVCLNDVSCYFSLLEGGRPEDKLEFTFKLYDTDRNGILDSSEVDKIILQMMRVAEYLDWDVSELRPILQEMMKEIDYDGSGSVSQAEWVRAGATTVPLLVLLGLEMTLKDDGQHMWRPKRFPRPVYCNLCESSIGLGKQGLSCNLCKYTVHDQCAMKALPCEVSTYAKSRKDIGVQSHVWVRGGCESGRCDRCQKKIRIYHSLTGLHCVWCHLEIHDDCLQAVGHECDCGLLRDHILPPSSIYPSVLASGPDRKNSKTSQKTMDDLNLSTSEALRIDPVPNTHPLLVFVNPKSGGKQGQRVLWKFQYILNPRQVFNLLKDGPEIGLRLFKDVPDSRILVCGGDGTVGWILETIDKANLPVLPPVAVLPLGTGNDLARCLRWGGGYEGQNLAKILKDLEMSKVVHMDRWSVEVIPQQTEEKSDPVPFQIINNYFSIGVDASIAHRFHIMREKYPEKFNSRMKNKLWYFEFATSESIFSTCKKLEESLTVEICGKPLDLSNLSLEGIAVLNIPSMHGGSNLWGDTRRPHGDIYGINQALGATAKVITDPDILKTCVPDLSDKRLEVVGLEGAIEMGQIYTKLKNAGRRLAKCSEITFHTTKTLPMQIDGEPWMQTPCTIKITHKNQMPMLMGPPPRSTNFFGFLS
DGKzeta, sequence (Q13574 whole entry, species assumed): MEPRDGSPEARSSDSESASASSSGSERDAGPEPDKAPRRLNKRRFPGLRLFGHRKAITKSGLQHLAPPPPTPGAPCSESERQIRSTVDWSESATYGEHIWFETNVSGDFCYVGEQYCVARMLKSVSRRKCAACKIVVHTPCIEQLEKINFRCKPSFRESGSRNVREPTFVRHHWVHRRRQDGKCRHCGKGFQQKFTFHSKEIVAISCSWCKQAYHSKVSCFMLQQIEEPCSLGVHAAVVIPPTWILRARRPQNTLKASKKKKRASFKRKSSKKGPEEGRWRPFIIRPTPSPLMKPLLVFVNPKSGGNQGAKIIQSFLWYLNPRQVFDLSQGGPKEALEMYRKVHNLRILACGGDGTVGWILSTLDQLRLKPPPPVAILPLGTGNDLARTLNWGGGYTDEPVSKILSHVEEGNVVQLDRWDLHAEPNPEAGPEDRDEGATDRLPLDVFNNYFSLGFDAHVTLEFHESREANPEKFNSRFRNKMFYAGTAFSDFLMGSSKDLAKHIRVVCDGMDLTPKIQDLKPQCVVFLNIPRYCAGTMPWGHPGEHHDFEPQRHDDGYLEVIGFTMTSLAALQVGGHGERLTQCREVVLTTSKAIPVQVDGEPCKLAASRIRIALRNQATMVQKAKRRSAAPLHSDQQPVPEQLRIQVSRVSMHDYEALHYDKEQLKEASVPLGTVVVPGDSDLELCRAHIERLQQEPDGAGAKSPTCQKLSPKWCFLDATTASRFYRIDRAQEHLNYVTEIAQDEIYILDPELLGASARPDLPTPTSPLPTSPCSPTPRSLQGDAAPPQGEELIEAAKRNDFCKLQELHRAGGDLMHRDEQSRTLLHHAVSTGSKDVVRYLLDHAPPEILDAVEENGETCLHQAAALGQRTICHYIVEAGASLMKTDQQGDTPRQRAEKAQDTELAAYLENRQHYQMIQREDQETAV

IC50 (DGKalpha) | IC50 (DGKzeta) | Compound | Emax (MV-3 cells) | EC50 (MV-3 cells)
 |  | CC(C)(c1nnc(-c2ccc3c(c2)N(Cc2ccc(Oc4cccc(F)c4)cc2)C(=O)[C@@H](N)CS3(=O)=O)o1)S(C)(=O)=O [Example 33, (3R)-3-amino-5-[[4-(3-fluorophenoxy)phenyl]methyl]-7-[5-(1-methyl-1-methylsulfonyl-ethyl)-1,3,4-oxadiazol-2-yl]-1,1-dioxo-2,3-dihydro-1λ6,5-benzothiazepin-4-one] | 117% | 465 nM
 |  | CC(C)(c1nc(-c2cc3c(cc2F)S(=O)(=O)C[C@H](N)C(=O)N3Cc2ccc(OC(F)(F)F)cc2)no1)S(C)(=O)=O [Example 44, (3R)-3-amino-8-fluoro-7-[5-(1-methyl-1-methylsulfonyl-ethyl)-1,2,4-oxadiazol-3-yl]-1,1-dioxo-5-[[4-(trifluoromethoxy)phenyl]methyl]-2,3-dihydro-1λ6,5-benzothiazepin-4-one] | 131% | 65 nM
 |  | CC(C)(c1nnc(-c2ccc3c(c2)N(Cc2ccc(-c4ccc(C(F)(F)F)cc4)nc2)C(=O)[C@@H](N)CS3(=O)=O)o1)S(C)(=O)=O [Example 57, (3R)-3-amino-7-[5-(1-methyl-1-methylsulfonyl-ethyl)-1,3,4-oxadiazol-2-yl]-1,1-dioxo-5-[[6-[4-(trifluoromethyl)phenyl]-3-pyridyl]methyl]-2,3-dihydro-1λ6,5-benzothiazepin-4-one] | 104% | 1850 nM
 |  | CC(C)(c1nnc(-c2ccc3c(c2)N(Cc2ccc(Oc4cccc(C(F)(F)F)c4)cc2)C(=O)[C@@H](N)CS3(=O)=O)o1)S(C)(=O)=O [Example 38] | 102% | 112 nM
 |  | CC(C)(c1nnc(-c2ccc3c(c2)N(Cc2ccc(Oc4ccccc4)cc2)C(=O)[C@@H](N)CS3(=O)=O)o1)S(C)(=O)=O [Example 5, (3R)-3-amino-7-[5-(1-methyl-1-methylsulfonyl-ethyl)-1,3,4-oxadiazol-2-yl]-1,1-dioxo-5-[(4-phenoxyphenyl)methyl]-2,3-dihydro-1λ6,5-benzothiazepin-4-one] | 154% | 982 nM
7.8 nM | 5.5 nM | CC(C)(c1nc(-c2cc3c(cc2F)S(=O)(=O)C[C@H](N)C(=O)N3Cc2ccc(Oc3ccccc3)cc2)no1)S(C)(=O)=O [Example 30, (3R)-3-amino-8-fluoro-7-[5-(1-methyl-1-methylsulfonyl-ethyl)-1,2,4-oxadiazol-3-yl]-1,1-dioxo-5-[(4-phenoxyphenyl)methyl]-2,3-dihydro-1λ6,5-benzothiazepin-4-one] | 100% | 41 nM
 |  | CC(C)(c1nnc(-c2ccc3c(c2)N(Cc2ccc(Oc4cccc(Cl)c4)cc2)C(=O)[C@@H](N)CS3(=O)=O)o1)S(C)(=O)=O [Example 34, (3R)-3-amino-5-[[4-(3-chlorophenoxy)phenyl]methyl]-7-[5-(1-methyl-1-methylsulfonyl-ethyl)-1,3,4-oxadiazol-2-yl]-1,1-dioxo-2,3-dihydro-1λ6,5-benzothiazepin-4-one] | 95% | 392 nM
 |  | CC(C)(c1nc(-c2cc3c(cc2F)S(=O)(=O)C[C@H](N)C(=O)N3Cc2ccc(-c3noc(C4CC4)n3)cc2)no1)S(C)(=O)=O [Example 45, (3R)-3-amino-5-[[4-(5-cyclopropyl-1,2,4-oxadiazol-3-yl)phenyl]methyl]-8-fluoro-7-[5-(1-methyl-1-methylsulfonyl-ethyl)-1,2,4-oxadiazol-3-yl]-1,1-dioxo-2,3-dihydro-1λ6,5-benzothiazepin-4-one] | 67% | 35 nM
 |  | CC(C)(c1nc(-c2cc3c(cc2F)S(=O)(=O)C[C@H](N)C(=O)N3Cc2ccc(-c3noc(C(F)(F)F)n3)cc2)no1)S(C)(=O)=O [Example 46, (3R)-3-amino-8-fluoro-7-[5-(1-methyl-1-methylsulfonyl-ethyl)-1,2,4-oxadiazol-3-yl]-1,1-dioxo-5-[[4-[5-(trifluoromethyl)-1,2,4-oxadiazol-3-yl]phenyl]methyl]-2,3-dihydro-1λ6,5-benzothiazepin-4-one] | 65% | 25 nM
67.7 nM | 142 nM | CC(C)(c1nnc(-c2ccc3c(c2)N(Cc2ccc(-c4ccc(C(F)(F)F)cc4)cc2)C(=O)[C@@H](N)CS3(=O)=O)o1)S(C)(=O)=O [Example 56, (3R)-3-amino-7-[5-(1-methyl-1-methylsulfonyl-ethyl)-1,3,4-oxadiazol-2-yl]-1,1-dioxo-5-[[4-[4-(trifluoromethyl)phenyl]phenyl]methyl]-2,3-dihydro-1λ6,5-benzothiazepin-4-one] | 100% | 105 nM
7.1 nM | 6.6 nM | CC(C)(c1nnc(-c2cc3c(cc2F)S(=O)(=O)C[C@H](N)C(=O)N3Cc2ccc(-c3ccc(C(F)(F)F)cc3)cc2)o1)S(C)(=O)=O [Example 35, (3R)-3-amino-8-fluoro-7-[5-(1-methyl-1-methylsulfonyl-ethyl)-1,3,4-oxadiazol-2-yl]-1,1-dioxo-5-[[4-[4-(trifluoromethyl)phenyl]phenyl]methyl]-2,3-dihydro-1λ6,5-benzothiazepin-4-one] |  | 
